# From patent publication US10344032B2, “Agents for treating neurogenic inflammation and neuropathic hyperalgesia related disorders” (PÉCSI TUDOMÁNYEGYETEM, priority 2014, dated 2019)
# Where a name gives a salt, the structure may show the parent alone.
row,melting point [°C],SMILES
1,237.2 to 239.9,"Cc1c(C)n(CCCN(C)C)c2ncnc(NCCc3ccc(N)cc3)c12 (as salt: salt) [Example 12, [2-(4-Amino-phenyl)-ethyl]-[7-(3-dimethylamino-propyl)-5,6-dimethyl-7H-pyrrolo[2,3-d]pyrimidin-4-yl]-amine]"
2,236 to 238,"Cc1c(C)n(CCCN(C)C)c2ncnc(NCCc3ccccc3)c12 (as salt: salt) [Example 14, [7-(3-Dimethylamino-propyl)-5,6-dimethyl-7H-pyrrolo[2,3-d]pyrimidin-4-yl]-phenethyl-amine]"
3,156 to 158.2,"COc1ccc(CCNc2ncnc3c2c(C)c(C)n3CCCN(C)C)cc1OC (as salt: salt) [Example 15, [2-(3,4-Dimethoxy-phenyl)-ethyl]-[7-(3-dimethylamino-propyl)-5,6-dimethyl-7H-pyrrolo[2,3-d]pyrimidin-4-yl]-amine]"
4,245 to 248,"Cc1c(C)n(CCCN(C)C)c2ncnc(NCCc3ccccc3Cl)c12 (as salt: salt) [Example 16, [2-(2-Chloro-phenyl)-ethyl]-[7-(3-dimethylamino-propyl)-5,6-dimethyl-7H-pyrrolo[2,3-d]pyrimidin-4-yl]-amine]"
5,239 to 240.2,"Cc1c(C)n(CCCN(C)C)c2ncnc(NCCc3cccc(F)c3)c12 (as salt: salt) [Example 17, [7-(3-Dimethylamino-propyl)-5,6-dimethyl-7H-pyrrolo[2,3-d]pyrimidin-4-yl]-[2-(3-fluoro-phenyl)-ethyl]-amine]"
6,209 to 212.9,"Cc1c(C)n(CCCN(C)C)c2ncnc(NCC(O)c3ccccc3)c12 (stereo not shown) (as salt: salt) [Example 18, 2-[7-(3-Dimethylamino-propyl)-5,6-dimethyl-7H-pyrrolo[2,3-d]pyrimidin-4-ylamino]-1-phenyl-ethanol]"
7,119 to 120.4,"COc1ccc(CCNc2ncnc3c2ccn3Cc2cncc(Br)c2)cc1OC (as salt: salt) [Example 37, [7-(5-Bromo-pyridin-3-ylmethyl)-7H-pyrrolo[2,3-d]pyrimidin-4-yl]-[2-(3,4-dimethoxy-phenyl)-ethyl]-amine]"
8,> 250,"COc1ccc(CCNc2ncnc3c2c(C)c(C)n3CCCN(C)C)cc1 (as salt: salt) [Example 41, [7-(3-Dimethylamino-propyl)-5,6-dimethyl-7H-pyrrolo[2,3-d]pyrimidin-4-yl]-[2-(4-methoxy-phenyl)-ethyl]-amine]"
9,175.7 to 176.4,"Cc1c(C)n(Cc2ccccc2)c2ncnc(NCCc3ccc(NS(C)(=O)=O)cc3)c12 [Example 5, N-{4-[2-(7-Benzyl-5,6-dimethyl-7H-pyrrolo[2,3-d]pyrimidin-4-ylamino)-ethyl]-phenyl}-methanesulfonamide]"
10,219 to 221,"Cc1c(C)n(Cc2ccccc2)c2ncnc(NCCc3ccc(N4C(=O)c5ccccc5C4=O)cc3)c12 [Example 6, 2-{4-[2-(7-Benzyl-5,6-dimethyl-7H-pyrrolo[2,3-d]pyrimidin-4-ylamino)-ethyl]-phenyl}-isoindole-1,3-dione]"
11,208 to 209.2,"Cc1c(C)n(Cc2ccccc2)c2ncnc(NCCc3ccc(NC(=O)Nc4ccc(F)cc4F)cc3)c12 [Example 7, 1-{4-[2-(7-Benzyl-5,6-dimethyl-7H-pyrrolo[2,3-d]pyrimidin-4-ylamino)-ethyl]-phenyl}-3-(2,4-difluoro-phenyl)-urea]"
12,> 260,"Nc1ccc(CCNc2ncnc3c2ccn3Cc2ccccc2)cc1 [Example 8, [2-(4-Amino-phenyl)-ethyl]-(7-benzyl-7H-pyrrolo[2,3-d]pyrimidin-4-yl)-amine]"
13,150 to 151.5,"Cc1c(C)n(Cc2ccco2)c2ncnc(NCCc3ccc(N)cc3)c12 [Example 10, [2-(4-Amino-phenyl)-ethyl]-(7-furan-2-ylmethyl-5,6-dimethyl-7H-pyrrolo[2,3-d]pyrimidin-4-yl)-amine]"
14,158.8 to 160.9,"Nc1ccc(CCNc2ncnc3c2ccn3Cc2cncc(Br)c2)cc1 [Example 11, [2-(4-Amino-phenyl)-ethyl]-[7-(5-bromo-pyridin-3-ylmethyl)-7H-pyrrolo[2,3-d]pyrimidin-4-yl]-amine]"
15,140 to 141,"COc1ccc(CCNc2ncnc3c2ccn3Cc2ccccc2)cc1 [Example 13, (7-Benzyl-7H-pyrrolo[2,3-d]pyrimidin-4-yl)-[2-(4-methoxy-phenyl)-ethyl]-amine]"
16,232 to 235,"Cc1c(C)n(Cc2cccc(Cl)c2)c2ncnc(NCCc3cccc(F)c3)c12 [Example 19, [7-(3-Chloro-benzyl)-5,6-dimethyl-7H-pyrrolo[2,3-d]pyrimidin-4-yl]-[2-(3-fluoro-phenyl)-ethyl]-amine]"
17,118 to 120,"COc1ccc(CCNc2ncnc3c2c(C)c(C)n3Cc2cccc(Cl)c2)cc1OC [Example 20, [7-(3-Chloro-benzyl)-5,6-dimethyl-7H-pyrrolo[2,3-d]pyrimidin-4-yl]-[2-(3,4-dimethoxy-phenyl)-ethyl]-amine]"
18,190 to 192,"Cc1c(C)n(Cc2cccc(Cl)c2)c2ncnc(NCCc3ccccc3Cl)c12 [Example 21, [7-(3-Chloro-benzyl)-5,6-dimethyl-7H-pyrrolo[2,3-d]pyrimidin-4-yl]-[2-(2-chloro-phenyl)-ethyl]-amine]"
19,178 to 180,"COc1ccc(CCN(C)c2ncnc3c2c(C)c(C)n3Cc2cccc(Cl)c2)cc1OC [Example 22, [7-(3-Chloro-benzyl)-5,6-dimethyl-7H-pyrrolo[2,3-d]pyrimidin-4-yl]-[2-(3,4-dimethoxy-phenyl)-ethyl]-methyl-amine]"

row,melting point [°C],SMILES
1,214 to 216,"COc1ccc(CCNc2ncnc3c2c(C)c(C)n3Cc2cccc(Cl)c2)cc1 [Example 23, [7-(3-Chloro-benzyl)-5,6-dimethyl-7H-pyrrolo[2,3-d]pyrimidin-4-yl]-[2-(4-methoxy-phenyl)-ethyl]-amine]"
2,177.3 to 178.3,"COc1ccc(CCNc2ncnc3c2ccn3Cc2ccccc2)cc1OC [Example 24, (7-Benzyl-7H-pyrrolo[2,3-d]pyrimidin-4-yl)-[2-(3,4-dimethoxy-phenyl)-ethyl]-amine]"
3,180 to 182.3,"Clc1ccccc1CCNc1ncnc2c1ccn2Cc1ccccc1 [Example 25, (7-Benzyl-7H-pyrrolo[2,3-d]pyrimidin-4-yl)-[2-(2-chloro-phenyl)-ethyl]-amine]"
4,210 to 211.8,"c1ccc(CCNc2ncnc3c2ccn3Cc2ccccc2)cc1 [Example 26, (7-Benzyl-7H-pyrrolo[2,3-d]pyrimidin-4-yl)-phenethyl-amine]"
5,116 to 117.5,"Fc1cccc(CCNc2ncnc3c2ccn3Cc2ccccc2)c1 [Example 27, (7-Benzyl-7H-pyrrolo[2,3-d]pyrimidin-4-yl)-[2-(3-fluoro-phenyl)-ethyl]-amine]"
6,195 to 197,"OC(CNc1ncnc2c1ccn2Cc1ccccc1)c1ccccc1 (stereo not shown) [Example 29, 2-(7-Benzyl-7H-pyrrolo[2,3-d]pyrimidin-4-ylamino)-1-phenyl-ethanol]"
7,128.9 to 129.2,"Cc1c(C)n(Cc2ccco2)c2ncnc(NCCc3ccccc3Cl)c12 [Example 31, [2-(2-Chloro-phenyl)-ethyl]-(7-furan-2-ylmethyl-5,6-dimethyl-7H-pyrrolo[2,3-d]pyrimidin-4-yl)-amine]"
8,221 to 223,"Cc1c(C)n(Cc2ccco2)c2ncnc(NCCc3ccccc3)c12 [Example 32, (7-Furan-2-ylmethyl-5,6-dimethyl-7H-pyrrolo[2,3-d]pyrimidin-4-yl)-phenethyl-amine]"
9,89 to 90,"Cc1c(C)n(Cc2ccco2)c2ncnc(NCCc3cccc(F)c3)c12 [Example 33, [2-(3-Fluoro-phenyl)-ethyl]-(7-furan-2-ylmethyl-5,6-dimethyl-7H-pyrrolo[2,3-d]pyrimidin-4-yl)-amine]"
10,167.5 to 168,"Cc1c(C)n(Cc2ccco2)c2ncnc(NCC(O)c3ccccc3)c12 (stereo not shown) [Example 35, 2-(7-Furan-2-ylmethyl-5,6-dimethyl-7H-pyrrolo[2,3-d]pyrimidin-4-ylamino)-1-phenyl-ethanol]"
11,114 to 115,"Clc1ccccc1CCNc1ncnc2c1ccn2Cc1cncc(Br)c1 [Example 36, [7-(5-Bromo-pyridin-3-ylmethyl)-7H-pyrrolo[2,3-d]pyrimidin-4-yl]-[2-(2-chloro-phenyl)-ethyl]-amine]"
12,100.4 to 100.7,"COc1ccc(CCNc2ncnc3c2ccn3Cc2cncc(Br)c2)cc1 [Example 38, [7-(5-Bromo-pyridin-3-ylmethyl)-7H-pyrrolo[2,3-d]pyrimidin-4-yl]-[2-(4-methoxy-phenyl)-ethyl]-amine]"
13,223 to 227,"Cc1c(C)n(Cc2ccccc2)c2ncnc(NCCc3ccccc3Cl)c12 [Example 42, (7-Benzyl-5,6-dimethyl-7H-pyrrolo[2,3-d]pyrimidin-4-yl)-[2-(2-chloro-phenyl)-ethyl]-amine]"
14,237.6 to 240,"Cc1c(C)n(Cc2ccccc2)c2ncnc(NCCc3cccc(F)c3)c12 [Example 43, (7-Benzyl-5,6-dimethyl-7H-pyrrolo[2,3-d]pyrimidin-4-yl)-[2-(3-fluoro-phenyl)-ethyl]-amine]"
15,151 to 152.3,"Cc1c(C)n(Cc2cccc(Cl)c2)c2ncnc(NCCc3ccc(NC(=O)c4ccccc4)cc3)c12 [Example 44, N-(4-{2-[7-(3-Chloro-benzyl)-5,6-dimethyl-7H-pyrrolo[2,3-d]pyrimidin-4-ylamino]-ethyl}-phenyl)-benzamide]"
16,186.1 to 187.2,"CC(=O)Nc1ccc(CCNc2ncnc3c2c(C)c(C)n3Cc2cccc(Cl)c2)cc1 [Example 45, N-(4-{2-[7-(3-Chloro-benzyl)-5,6-dimethyl-7H-pyrrolo[2,3-d]pyrimidin-4-ylamino]-ethyl}-phenyl)-acetamide]"
17,206.8 to 208.1,"CC(=O)Nc1ccc(CCNc2ncnc3c2c(C)c(C)n3Cc2ccco2)cc1 [Example 46, N-{4-[2-(7-Furan-2-ylmethyl-5,6-dimethyl-7H-pyrrolo[2,3-d]pyrimidin-4-ylamino)-ethyl]-phenyl}-acetamide]"
18,228 to 229.5,"CC(=O)Nc1ccc(CCNc2ncnc3c2ccn3Cc2ccccc2)cc1 [Example 47, N-{4-[2-(7-Benzyl-7H-pyrrolo[2,3-d]pyrimidin-4-ylamino)-ethyl]-phenyl}-acetamide]"
